# Laboratory results reported in patent US11572590B2, “Methods for evaluating tumor cell spheroids using 3D microfluidic cell culture device” (Dana-Farber Cancer Institute, Inc., priority 2017, dated 2023).
# Like-named read-outs stand apart in the source and are kept apart here.
# Legend:
# Experiment in all cases: SelectScreen Kinase Profiling, single point inhibition and IC50 for off-target kinases
# Assay type in all cases: biochemical
# [1] = target: off-target kinases (Homo sapiens, UniProt P54764); conditions: EPHA4, ZLYTE, ATP Km app
# Sequence of off-target kinases (Homo sapiens, UniProt P54764) (P54764 20-986): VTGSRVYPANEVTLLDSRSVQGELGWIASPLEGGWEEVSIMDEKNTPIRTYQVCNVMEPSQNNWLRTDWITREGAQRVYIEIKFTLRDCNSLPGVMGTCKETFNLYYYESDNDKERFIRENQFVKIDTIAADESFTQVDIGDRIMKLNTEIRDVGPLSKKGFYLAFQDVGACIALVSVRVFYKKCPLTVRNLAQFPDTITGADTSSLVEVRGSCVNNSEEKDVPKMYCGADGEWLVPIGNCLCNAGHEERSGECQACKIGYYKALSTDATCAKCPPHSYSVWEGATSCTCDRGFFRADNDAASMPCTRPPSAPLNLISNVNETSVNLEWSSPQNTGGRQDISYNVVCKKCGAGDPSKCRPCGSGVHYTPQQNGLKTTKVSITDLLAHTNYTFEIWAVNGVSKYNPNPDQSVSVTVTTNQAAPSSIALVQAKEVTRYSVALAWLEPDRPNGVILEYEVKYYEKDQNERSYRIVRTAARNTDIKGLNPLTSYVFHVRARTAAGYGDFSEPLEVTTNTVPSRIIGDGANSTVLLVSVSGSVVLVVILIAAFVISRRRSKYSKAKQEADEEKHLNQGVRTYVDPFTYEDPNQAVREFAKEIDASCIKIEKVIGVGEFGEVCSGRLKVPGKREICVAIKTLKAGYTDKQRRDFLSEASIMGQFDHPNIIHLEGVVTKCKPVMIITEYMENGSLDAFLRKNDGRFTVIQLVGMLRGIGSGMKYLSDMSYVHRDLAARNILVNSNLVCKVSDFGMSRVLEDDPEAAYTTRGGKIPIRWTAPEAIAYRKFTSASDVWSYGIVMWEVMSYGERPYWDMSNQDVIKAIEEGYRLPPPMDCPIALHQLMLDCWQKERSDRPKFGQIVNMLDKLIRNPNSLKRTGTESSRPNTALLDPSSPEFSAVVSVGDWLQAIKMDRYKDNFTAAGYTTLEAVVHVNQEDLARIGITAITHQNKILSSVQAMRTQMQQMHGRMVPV
# [2] = target: off-target kinases (Homo sapiens, UniProt Q9P1W9); conditions: PIM2, ZLYTE, ATP Km app
# Sequence of off-target kinases (Homo sapiens, UniProt Q9P1W9) (Q9P1W9 whole entry): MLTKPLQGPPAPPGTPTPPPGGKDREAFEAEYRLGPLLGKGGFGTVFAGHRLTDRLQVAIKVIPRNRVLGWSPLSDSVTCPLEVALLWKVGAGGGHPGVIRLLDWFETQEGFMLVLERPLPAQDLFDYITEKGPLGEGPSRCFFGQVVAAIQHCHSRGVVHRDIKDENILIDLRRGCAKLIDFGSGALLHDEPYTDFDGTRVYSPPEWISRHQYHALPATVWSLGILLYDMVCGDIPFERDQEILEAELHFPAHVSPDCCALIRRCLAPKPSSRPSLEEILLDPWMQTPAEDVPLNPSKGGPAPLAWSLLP
# [3] = target: off-target kinases (Homo sapiens, UniProt Q9H0K1); conditions: SNF1LK2, ATP Km app, ZLYTE
# Sequence of off-target kinases (Homo sapiens, UniProt Q9H0K1) (Q9H0K1 whole entry): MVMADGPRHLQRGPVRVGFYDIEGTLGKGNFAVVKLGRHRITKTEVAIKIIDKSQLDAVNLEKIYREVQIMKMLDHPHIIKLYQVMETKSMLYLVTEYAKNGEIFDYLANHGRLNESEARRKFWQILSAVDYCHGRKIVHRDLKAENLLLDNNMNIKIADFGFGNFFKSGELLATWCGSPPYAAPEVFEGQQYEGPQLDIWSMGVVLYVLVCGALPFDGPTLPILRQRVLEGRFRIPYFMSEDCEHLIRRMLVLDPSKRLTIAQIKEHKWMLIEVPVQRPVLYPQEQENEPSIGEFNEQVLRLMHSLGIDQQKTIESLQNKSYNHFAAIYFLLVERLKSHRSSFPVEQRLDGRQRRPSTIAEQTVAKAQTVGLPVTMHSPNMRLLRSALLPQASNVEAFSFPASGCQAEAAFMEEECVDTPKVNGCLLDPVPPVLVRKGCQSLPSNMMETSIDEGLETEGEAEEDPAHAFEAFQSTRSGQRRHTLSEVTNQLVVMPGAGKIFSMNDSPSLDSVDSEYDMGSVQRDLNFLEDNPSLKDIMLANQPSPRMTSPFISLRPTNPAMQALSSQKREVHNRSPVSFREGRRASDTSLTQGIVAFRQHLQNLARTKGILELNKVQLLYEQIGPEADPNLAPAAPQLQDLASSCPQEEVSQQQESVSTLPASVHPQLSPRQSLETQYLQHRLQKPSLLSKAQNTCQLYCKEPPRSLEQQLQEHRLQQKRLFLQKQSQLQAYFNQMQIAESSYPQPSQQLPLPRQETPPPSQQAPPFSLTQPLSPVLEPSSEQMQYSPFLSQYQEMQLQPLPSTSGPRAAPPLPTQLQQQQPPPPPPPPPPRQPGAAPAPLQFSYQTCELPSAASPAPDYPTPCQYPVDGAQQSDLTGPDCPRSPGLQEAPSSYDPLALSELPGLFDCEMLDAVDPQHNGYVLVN
# [4] = target: off-target kinases (Homo sapiens, UniProt P00533, L858R); conditions: EGFR (ErbB1) L858R (mutant), ZLYTE, ATP Km app
# Sequence of off-target kinases (Homo sapiens, UniProt P00533, L858R) (P00533 25-1210 L858R): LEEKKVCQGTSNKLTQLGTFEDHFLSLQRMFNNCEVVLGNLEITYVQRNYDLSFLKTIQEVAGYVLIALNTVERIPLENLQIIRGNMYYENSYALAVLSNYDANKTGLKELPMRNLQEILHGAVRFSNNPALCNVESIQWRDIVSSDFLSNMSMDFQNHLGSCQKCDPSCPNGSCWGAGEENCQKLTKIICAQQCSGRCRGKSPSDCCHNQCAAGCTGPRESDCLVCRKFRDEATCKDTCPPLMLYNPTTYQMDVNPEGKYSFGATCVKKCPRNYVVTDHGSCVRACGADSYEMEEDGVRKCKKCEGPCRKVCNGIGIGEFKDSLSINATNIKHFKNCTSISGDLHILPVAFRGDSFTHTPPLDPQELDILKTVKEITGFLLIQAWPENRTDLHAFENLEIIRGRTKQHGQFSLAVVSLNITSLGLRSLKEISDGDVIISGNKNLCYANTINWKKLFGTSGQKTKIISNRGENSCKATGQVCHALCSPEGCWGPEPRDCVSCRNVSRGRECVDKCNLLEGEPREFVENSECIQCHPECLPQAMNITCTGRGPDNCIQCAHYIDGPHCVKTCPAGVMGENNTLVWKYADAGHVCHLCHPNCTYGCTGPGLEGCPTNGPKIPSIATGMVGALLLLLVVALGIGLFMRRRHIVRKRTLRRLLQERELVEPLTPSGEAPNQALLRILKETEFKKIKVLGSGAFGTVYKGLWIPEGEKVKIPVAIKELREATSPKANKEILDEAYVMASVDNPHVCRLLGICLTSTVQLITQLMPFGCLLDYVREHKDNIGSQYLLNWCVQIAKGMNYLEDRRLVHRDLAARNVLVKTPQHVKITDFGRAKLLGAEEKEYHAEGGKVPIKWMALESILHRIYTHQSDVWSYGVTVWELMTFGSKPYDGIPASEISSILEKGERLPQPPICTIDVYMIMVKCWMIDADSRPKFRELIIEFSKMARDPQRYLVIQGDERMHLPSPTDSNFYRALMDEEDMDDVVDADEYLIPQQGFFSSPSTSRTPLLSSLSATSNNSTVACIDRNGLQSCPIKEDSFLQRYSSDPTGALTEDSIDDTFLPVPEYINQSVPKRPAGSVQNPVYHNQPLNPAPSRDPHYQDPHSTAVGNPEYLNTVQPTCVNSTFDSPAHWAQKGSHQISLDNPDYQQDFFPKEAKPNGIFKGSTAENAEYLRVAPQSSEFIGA
# [5] = target: T1, off-target kinases (Homo sapiens, UniProt P36897); conditions: TGFBR1 (ALK5), LanthaScreen Binding
# T1 sequence (P36897 34-503): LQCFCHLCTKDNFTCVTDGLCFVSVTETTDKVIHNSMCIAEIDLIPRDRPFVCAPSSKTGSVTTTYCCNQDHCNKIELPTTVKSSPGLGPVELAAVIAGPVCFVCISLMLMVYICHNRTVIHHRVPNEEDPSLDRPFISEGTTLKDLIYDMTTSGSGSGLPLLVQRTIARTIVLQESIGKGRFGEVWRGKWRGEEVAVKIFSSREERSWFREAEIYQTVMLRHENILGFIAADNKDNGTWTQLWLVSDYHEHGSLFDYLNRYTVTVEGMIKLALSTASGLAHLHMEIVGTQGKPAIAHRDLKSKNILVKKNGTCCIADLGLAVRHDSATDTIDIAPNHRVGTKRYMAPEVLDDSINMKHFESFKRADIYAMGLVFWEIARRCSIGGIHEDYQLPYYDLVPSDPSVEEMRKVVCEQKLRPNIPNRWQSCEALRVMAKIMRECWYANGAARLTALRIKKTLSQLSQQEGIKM
# [6] = target: T2, off-target kinases (Homo sapiens, UniProt Q16832, T654M); conditions: DDR2 T654M, LanthaScreen Binding
# T2 sequence (Q16832 22-855 T654M): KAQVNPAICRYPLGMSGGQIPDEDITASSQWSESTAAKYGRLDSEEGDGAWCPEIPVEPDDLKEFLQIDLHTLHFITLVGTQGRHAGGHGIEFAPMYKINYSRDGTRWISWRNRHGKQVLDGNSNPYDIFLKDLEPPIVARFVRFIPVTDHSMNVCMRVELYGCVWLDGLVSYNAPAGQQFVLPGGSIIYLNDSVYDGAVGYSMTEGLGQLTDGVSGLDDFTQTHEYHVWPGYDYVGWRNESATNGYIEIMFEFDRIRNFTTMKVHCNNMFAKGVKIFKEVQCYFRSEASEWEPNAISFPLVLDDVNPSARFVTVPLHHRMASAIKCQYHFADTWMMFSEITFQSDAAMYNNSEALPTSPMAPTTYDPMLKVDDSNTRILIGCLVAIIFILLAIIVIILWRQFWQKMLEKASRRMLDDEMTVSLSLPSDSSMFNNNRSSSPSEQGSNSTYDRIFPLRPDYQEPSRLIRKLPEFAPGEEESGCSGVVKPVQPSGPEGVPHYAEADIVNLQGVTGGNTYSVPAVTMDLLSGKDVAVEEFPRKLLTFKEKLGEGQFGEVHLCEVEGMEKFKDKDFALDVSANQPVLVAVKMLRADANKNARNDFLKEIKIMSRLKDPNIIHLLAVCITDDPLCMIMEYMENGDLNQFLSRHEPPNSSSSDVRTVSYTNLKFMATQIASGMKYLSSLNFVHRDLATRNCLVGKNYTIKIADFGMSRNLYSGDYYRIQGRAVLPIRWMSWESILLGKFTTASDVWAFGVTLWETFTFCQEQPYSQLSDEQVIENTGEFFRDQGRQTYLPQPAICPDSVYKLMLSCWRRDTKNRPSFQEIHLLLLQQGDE
smiles,measurement,setting,value
"N#Cc1cc(-c2ncnc(Nc3ccc(N4CCN(C5COC5)CC4)cc3)n2)ccc1OC1CCOCC1 [Compound 1, 5-(4-((4-(4-(oxetan-3-yl)piperazin-1-yl)phenyl)amino)-1,3,5-triazin-2-yl)-2-((tetrahydro-2H-pyran-4-yl)oxy)benzonitrile]",inhibition,[1]; read-out: % Inhibition 1,18%
same,inhibition,[1]; read-out: % Inhibition 2,21%
same,inhibition,[1]; read-out: % Inhibition Avg,20%
same,inhibition,[2]; read-out: % Inhibition 1,-1%
same,inhibition,[2]; read-out: % Inhibition 2,7%
same,inhibition,[2]; read-out: % Inhibition Avg,3%
same,inhibition,[3]; read-out: % Inhibition 1,88%
same,inhibition,[3]; read-out: % Inhibition 2,88%
same,inhibition,[3]; read-out: % Inhibition Avg,88%
same,inhibition,[4]; read-out: % Inhibition 1,6%
same,inhibition,[4]; read-out: % Inhibition 2,3%
same,inhibition,[4]; read-out: % Inhibition Avg,4%
same,inhibition,[5]; read-out: % Inhibition 1,56%
same,inhibition,[5]; read-out: % Inhibition 2,58%
same,inhibition,[5]; read-out: % Inhibition Avg,57%
same,inhibition,[6]; read-out: % Inhibition 1,56%
same,inhibition,[6]; read-out: % Inhibition 2,57%
same,inhibition,[6]; read-out: % Inhibition Avg,57%
